Here are results for 17 compounds from patent US9776979B2, “EBI2 modulators” (Sanford-Burnham Medical Research Institute, priority 2013, dated 2017).

In the first assay the target is EBI2 (Homo sapiens, UniProt P32249). As to the kind of experiment: Cell-based luminescent assay (EBI2 modulation).
EBI2, sequence (P32249 whole entry): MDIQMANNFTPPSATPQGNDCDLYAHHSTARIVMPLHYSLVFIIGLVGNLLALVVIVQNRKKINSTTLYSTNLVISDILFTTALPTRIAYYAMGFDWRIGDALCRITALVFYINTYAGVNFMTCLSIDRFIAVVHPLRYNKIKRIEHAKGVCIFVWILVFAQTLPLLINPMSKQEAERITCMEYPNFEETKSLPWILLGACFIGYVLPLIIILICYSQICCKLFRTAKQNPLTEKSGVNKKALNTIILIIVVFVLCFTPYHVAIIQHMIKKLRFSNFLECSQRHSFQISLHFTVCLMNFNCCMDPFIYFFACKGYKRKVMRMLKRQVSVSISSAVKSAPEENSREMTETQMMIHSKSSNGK
Details: not given
The procedure, abridged: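 Cells plated overnight at 37° C, then exposed to compound at 4-5 uM final with 80 nM 7a,25-OHC agonist for 60 min at 37° C. Luminescence read after 60 min detection at 25° C in the dark; values normalized to neutral and stimulator controls and plate-pattern corrected.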
Turning to `Cc1ccc(CN2CCN(C(=O)/C=C/c3ccccc3)CC2)cc1` [Compound C260], the IC50 was under 100 nM.

Still in this assay, the particulars now being: cell-based luminescence; 7a,25-OHC final assay concentration 80 nM; 60 minutes incubation; read-out: IC50.
With “6-bromoindol-2-yl 4-[(4-chlorophenyl)carbonyl]piperazinyl ketone [Compound C239]”, the IC50 is under 100 nM.

For the compound `COc1ccc(C(=O)N2CCN(C(=O)C#Cc3ccc(Br)cc3)CC2)cc1` [Compound C10, 3-(4-bromophenyl)-1-{4-[(4-methoxyphenyl)carbonyl]piperazinyl}prop-2-yn-1-one], the IC50 is under 100 nM.

As to `O=C(/C=C/c1ccc(F)cc1)N1CCN(S(=O)(=O)c2cccc(Br)c2)CC1` [Compound C209, (2E)-1-{4-[(3-bromophenyl)sulfonyl]piperazinyl}-3-(4-fluorophenyl)prop-2-en-1-one], the IC50 was under 100 nM.

As to `O=C(/C=C/c1ccc(Br)cc1)N1CCN(Cc2ccc(Cl)cc2F)CC1` [Compound C130, (2E)-3-(4-bromophenyl)-1-{4-[(4-chloro-2-fluorophenyl)methyl]piperazinyl}prop-2-en-1-one], the IC50 was under 100 nM.

Turning to `O=C(/C=C/c1ccc(Br)cc1)N1CCN(C(=O)c2ccc(B(O)O)cc2)CC1` [Compound C153, (E)-(4-(4-(3-(4-bromophenyl)acryloyl)piperazine-1-carbonyl)phenyl)boronic acid], the IC50 is under 100 nM.

Turning to “4-{3-[4-(diphenylmethyl)piperazinyl]-3-oxoprop-1-ynyl}benzenecarbonitrile [Compound C326]”, the IC50 was under 100 nM.

For `Cc1ccc2[nH]c(C(=O)N3CCN(Cc4ccc5c(c4)OCO5)CC3)cc2c1` [Compound C111, 4-(2H-benzo[d]1,3-dioxolan-5-ylmethyl)piperazinyl 5-methylindol-2-yl ketone], the IC50 was under 100 nM.

For `O=C(Nc1ccc(F)cc1)c1ccc(CN2CCN(C(=O)c3cc4cc(Cl)ccc4[nH]3)CC2)cc1` [Compound C181, [4-({4-[(5-chloroindol-2-yl)carbonyl]piperazinyl}methyl)phenyl]-N-(4-fluorophenyl)carboxamide], the IC50 is 500 to 5000 nM.

Turning to `O=C(/C=C/c1ccc(F)cc1)N1CCN(S(=O)(=O)c2cc(Cl)ccc2Cl)CC1` [Compound C225, (2E)-1-{4-[(2,5-dichlorophenyl)sulfonyl]piperazinyl}-3-(4-fluorophenyl)prop-2-en-1-one], the IC50 is under 100 nM.

Turning to `O=C(c1cc2ncccc2[nH]1)N1CCN(C(c2ccccc2)c2ccccc2)CC1` [Compound C193, 4-(diphenylmethyl)piperazinyl pyrrolo[4,5-b]pyridin-2-yl ketone], the IC50 lay in the range of 500 to 5000 nM.

In the case of `CCCCN1CCN(C(=O)c2cc3cc(Cl)ccc3[nH]2)CC1` [Compound C368, 4-butylpiperazinyl 5-chloroindol-2-yl ketone], the IC50 was under 100 nM.

`O=C(/C=C/c1ccc(Br)cc1)N1CCN(C(=O)C2CCCC2)CC1` [Compound C82, (2E)-3-(4-bromophenyl)-1-[4-(cyclopentylcarbonyl)piperazinyl]prop-2-en-1-one]: the IC50 was under 100 nM.

On to `CC(C)(C)c1ccc(S(=O)(=O)N2CCN(C(=O)/C=C/c3ccc(Cl)cc3F)CC2)cc1` [Compound C448, (2E)-1-(4-{[4-(tert-butyl)phenyl]sulfonyl}piperazinyl)-3-(4-chloro-2-fluorophenyl)prop-2-en-1-one], for which the IC50 was in the range of 100 to 500 nM.

As to “1-{4-[(4-methoxyphenyl)carbonyl]piperazinyl}-3-[2-(trifluoromethyl)phenyl]prop-2-yn-1-one [Compound C373]”, the IC50 is under 100 nM.

`Cc1ccc(C#CC(=O)N2CCN(C(=O)c3ccc(F)cc3C(F)(F)F)CC2)cc1` [Compound C224, 1-(4-{[4-fluoro-2-(trifluoromethyl)phenyl]carbonyl}piperazinyl)-3-(4-methylphenyl)prop-2-yn-1-one]: the IC50 is under 100 nM.

For the compound `O=C(c1cc2cc(Cl)ccc2[nH]1)N1CCN(Cc2cc(C(F)(F)F)cc(C(F)(F)F)c2)CC1` [Compound C423, 4-{[3,5-bis(trifluoromethyl)phenyl]methyl}piperazinyl 5-chloroindol-2-yl ketone], the IC50 lay within 100 to 500 nM.
